Assay results published in the kinase profiling compilation of Christmann-Franck et al. (2016).

Columns and labels:
Assay in all cases: KINOMEscan competition binding
Conditions in all cases: compound 10.0 µM
[1] = system: EGFR (human), P00533 [T790M/L858R]
STK3 (human) = STK3 (human) (UniProt Q13188)
RPS6KA3 KD1 (human) = RPS6KA3 KD1 (human) (UniProt P51812)
YSK4 (human) = YSK4 (human) (UniProt Q56UN5)
MYLK4 (human) = MYLK4 (human) (UniProt Q86YV6)
[2] = system: KIT (human), P10721 [V559D/V654A]
ROCK2 (human) = ROCK2 (human) (UniProt O75116)
CRK2 (P.falciparum) = CRK2 (P.falciparum) (UniProt P61075)
ULK1 (human) = ULK1 (human) (UniProt O75385)
MAP2K3 (human) = MAP2K3 (human) (UniProt P46734)
SRPK3 (human) = SRPK3 (human) (UniProt Q9UPE1)
MET (human) = MET (human) (UniProt P08581)
CDK13 (human) = CDK13 (human) (UniProt Q14004)
CLK2 (human) = CLK2 (human) (UniProt P49760)
[3] = system: RET (human), P07949 [V804M]
MAPK9 (human) = MAPK9 (human) (UniProt P45984)
PDPK1 (human) = PDPK1 (human) (UniProt O15530)
HIPK2 (human) = HIPK2 (human) (UniProt Q9H2X6)
CDK19 (human) = CDK19 (human) (UniProt Q9BWU1)
DSTYK (human) = DSTYK (human) (UniProt Q6XUX3)
MAP3K15 (human) = MAP3K15 (human) (UniProt Q6ZN16)
WEE1 (human) = WEE1 (human) (UniProt P30291)
RAF1 (human) = RAF1 (human) (UniProt P04049)
CHEK2 (human) = CHEK2 (human) (UniProt O96017)
LCK (human) = LCK (human) (UniProt P06239)
SRMS (human) = SRMS (human) (UniProt Q9H3Y6)
PKN2 (human) = PKN2 (human) (UniProt Q16513)
IRAK1 (human) = IRAK1 (human) (UniProt P51617)
STK38L (human) = STK38L (human) (UniProt Q9Y2H1)
RIPK2 (human) = RIPK2 (human) (UniProt O43353)
SNRK (human) = SNRK (human) (UniProt Q9NRH2)
SRPK2 (human) = SRPK2 (human) (UniProt P78362)
STK25 (human) = STK25 (human) (UniProt O00506)
NEK3 (human) = NEK3 (human) (UniProt P51956)
CDK8 (human) = CDK8 (human) (UniProt P49336)
RPS6KA5 KD2 (human) = RPS6KA5 KD2 (human) (UniProt O75582)
PDGFRA (human) = PDGFRA (human) (UniProt P16234)
TGFBR2 (human) = TGFBR2 (human) (UniProt P37173)
FGR (human) = FGR (human) (UniProt P09769)
IRAK4 (human) = IRAK4 (human) (UniProt Q9NWZ3)

IRAK1 (human), sequence (P51617 whole entry, looked up): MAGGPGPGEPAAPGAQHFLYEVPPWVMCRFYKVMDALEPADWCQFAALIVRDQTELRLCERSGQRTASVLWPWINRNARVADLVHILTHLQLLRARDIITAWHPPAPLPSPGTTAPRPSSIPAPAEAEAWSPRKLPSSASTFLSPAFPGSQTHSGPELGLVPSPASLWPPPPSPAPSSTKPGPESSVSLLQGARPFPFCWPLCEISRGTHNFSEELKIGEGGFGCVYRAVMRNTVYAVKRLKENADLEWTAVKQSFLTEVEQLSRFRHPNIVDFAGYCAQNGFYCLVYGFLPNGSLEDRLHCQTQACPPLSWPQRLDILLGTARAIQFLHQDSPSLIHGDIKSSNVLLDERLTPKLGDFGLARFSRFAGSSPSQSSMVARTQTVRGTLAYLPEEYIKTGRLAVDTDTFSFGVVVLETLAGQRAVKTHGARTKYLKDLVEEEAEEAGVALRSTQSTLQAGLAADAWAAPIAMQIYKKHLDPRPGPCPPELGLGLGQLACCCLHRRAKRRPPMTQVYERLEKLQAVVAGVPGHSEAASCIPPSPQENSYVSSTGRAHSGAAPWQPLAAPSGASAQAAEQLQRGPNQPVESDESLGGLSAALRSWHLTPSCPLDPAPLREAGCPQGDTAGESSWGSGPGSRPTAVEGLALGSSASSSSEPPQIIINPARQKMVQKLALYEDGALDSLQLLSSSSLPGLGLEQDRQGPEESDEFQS
YSK4 (human), sequence (Q56UN5 whole entry, looked up): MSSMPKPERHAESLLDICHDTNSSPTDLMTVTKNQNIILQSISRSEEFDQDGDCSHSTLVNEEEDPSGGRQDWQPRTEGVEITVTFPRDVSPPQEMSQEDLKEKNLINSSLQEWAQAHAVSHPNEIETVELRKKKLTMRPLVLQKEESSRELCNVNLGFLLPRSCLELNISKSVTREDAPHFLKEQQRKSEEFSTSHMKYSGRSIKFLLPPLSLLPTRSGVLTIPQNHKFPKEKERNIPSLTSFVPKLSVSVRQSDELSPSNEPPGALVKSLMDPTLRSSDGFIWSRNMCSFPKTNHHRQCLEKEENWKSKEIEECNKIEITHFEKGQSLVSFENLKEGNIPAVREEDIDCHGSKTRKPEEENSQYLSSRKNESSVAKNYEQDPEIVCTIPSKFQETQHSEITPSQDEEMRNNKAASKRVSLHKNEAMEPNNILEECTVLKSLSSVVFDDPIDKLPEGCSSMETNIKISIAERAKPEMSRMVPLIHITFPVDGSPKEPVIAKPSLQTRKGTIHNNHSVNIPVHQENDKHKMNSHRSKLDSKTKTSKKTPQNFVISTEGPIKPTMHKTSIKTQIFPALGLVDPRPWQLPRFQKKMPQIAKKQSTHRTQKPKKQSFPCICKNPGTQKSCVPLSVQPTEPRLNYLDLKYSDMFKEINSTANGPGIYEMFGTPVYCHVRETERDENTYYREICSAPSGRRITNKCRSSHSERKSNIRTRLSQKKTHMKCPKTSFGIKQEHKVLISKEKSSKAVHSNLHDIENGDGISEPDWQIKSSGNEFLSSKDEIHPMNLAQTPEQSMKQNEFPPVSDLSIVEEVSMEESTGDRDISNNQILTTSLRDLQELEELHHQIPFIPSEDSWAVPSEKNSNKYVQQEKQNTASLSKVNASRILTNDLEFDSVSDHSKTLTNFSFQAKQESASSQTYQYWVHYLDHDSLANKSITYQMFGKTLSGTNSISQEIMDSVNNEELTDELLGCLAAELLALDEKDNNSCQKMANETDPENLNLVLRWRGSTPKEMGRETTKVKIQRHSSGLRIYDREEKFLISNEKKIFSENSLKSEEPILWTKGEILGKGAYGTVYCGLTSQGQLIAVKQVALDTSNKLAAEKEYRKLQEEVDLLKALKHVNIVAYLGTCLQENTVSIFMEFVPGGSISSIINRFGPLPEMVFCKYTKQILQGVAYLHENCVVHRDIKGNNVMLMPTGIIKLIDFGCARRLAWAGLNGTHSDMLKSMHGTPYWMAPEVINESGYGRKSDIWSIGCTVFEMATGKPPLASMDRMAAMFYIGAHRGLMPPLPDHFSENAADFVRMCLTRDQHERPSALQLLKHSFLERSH
RIPK2 (human), sequence (O43353 whole entry, looked up): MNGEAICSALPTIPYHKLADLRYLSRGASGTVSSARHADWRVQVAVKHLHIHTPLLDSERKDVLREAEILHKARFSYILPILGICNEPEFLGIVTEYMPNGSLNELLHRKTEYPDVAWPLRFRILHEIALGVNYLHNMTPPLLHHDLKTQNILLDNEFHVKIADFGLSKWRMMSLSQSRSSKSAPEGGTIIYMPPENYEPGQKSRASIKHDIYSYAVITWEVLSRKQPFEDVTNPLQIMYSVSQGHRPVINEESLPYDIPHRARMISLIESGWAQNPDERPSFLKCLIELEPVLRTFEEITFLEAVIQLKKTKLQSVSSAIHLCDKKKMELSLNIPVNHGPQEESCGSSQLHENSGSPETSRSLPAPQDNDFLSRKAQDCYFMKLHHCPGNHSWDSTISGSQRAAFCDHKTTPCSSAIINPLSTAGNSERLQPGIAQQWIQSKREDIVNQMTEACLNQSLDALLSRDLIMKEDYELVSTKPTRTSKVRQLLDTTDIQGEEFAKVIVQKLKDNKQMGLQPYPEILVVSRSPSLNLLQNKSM
SRPK3 (human), sequence (Q9UPE1 whole entry, looked up): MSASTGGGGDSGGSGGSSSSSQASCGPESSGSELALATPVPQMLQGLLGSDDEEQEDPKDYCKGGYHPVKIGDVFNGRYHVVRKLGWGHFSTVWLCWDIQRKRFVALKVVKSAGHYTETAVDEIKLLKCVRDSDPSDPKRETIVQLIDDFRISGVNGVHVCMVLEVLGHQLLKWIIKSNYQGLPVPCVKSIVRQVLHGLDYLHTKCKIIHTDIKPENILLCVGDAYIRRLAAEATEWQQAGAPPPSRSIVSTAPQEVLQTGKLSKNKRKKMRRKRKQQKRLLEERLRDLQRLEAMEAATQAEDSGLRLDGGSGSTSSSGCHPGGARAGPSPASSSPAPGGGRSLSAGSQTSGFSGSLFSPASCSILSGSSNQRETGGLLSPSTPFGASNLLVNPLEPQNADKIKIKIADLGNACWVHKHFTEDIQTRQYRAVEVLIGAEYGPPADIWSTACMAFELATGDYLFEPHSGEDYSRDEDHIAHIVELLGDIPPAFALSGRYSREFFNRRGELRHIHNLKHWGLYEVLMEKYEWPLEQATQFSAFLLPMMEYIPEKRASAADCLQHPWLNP
STK3 (human), sequence (Q13188 whole entry, looked up): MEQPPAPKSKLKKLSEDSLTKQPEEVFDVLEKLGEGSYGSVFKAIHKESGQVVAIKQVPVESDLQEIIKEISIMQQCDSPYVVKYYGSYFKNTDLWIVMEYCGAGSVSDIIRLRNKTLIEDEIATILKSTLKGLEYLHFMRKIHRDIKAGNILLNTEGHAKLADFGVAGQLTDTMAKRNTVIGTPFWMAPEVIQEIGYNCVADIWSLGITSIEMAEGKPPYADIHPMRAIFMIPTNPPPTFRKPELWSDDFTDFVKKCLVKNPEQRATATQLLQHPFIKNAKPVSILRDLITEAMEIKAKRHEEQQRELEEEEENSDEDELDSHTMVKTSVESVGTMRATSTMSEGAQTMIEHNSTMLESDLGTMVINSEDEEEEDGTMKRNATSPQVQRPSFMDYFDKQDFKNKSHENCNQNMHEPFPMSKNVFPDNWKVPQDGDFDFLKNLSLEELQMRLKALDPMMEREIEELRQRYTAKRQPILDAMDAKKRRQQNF
CHEK2 (human), sequence (O96017 whole entry, looked up): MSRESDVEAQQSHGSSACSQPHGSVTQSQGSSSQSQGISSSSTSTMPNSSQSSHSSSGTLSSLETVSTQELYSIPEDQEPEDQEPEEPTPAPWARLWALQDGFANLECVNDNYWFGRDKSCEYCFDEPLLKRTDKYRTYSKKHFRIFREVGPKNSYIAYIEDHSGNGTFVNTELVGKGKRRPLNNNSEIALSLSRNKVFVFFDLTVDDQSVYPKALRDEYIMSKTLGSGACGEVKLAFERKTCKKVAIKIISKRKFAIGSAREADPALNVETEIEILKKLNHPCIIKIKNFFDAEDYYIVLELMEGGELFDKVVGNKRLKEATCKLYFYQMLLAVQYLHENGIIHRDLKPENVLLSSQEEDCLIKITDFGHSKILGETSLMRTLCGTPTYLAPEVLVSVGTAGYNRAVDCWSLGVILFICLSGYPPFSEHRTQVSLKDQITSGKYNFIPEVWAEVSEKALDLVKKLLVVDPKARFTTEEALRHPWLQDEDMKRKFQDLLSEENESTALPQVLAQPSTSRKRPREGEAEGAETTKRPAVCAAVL
MAPK9 (human), sequence (P45984 whole entry, looked up): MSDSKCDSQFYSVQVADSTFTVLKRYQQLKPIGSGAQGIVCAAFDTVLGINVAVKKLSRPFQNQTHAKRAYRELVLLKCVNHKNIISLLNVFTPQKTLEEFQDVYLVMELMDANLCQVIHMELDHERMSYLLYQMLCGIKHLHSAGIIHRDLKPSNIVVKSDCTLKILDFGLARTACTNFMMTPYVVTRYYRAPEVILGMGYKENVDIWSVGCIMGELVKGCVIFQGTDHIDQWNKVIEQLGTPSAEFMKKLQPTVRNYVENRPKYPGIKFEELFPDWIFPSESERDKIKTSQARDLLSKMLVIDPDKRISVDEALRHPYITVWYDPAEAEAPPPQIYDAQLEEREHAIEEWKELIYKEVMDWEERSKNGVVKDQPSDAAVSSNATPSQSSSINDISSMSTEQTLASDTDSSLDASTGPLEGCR
CRK2 (P.falciparum), sequence (P61075 whole entry, looked up): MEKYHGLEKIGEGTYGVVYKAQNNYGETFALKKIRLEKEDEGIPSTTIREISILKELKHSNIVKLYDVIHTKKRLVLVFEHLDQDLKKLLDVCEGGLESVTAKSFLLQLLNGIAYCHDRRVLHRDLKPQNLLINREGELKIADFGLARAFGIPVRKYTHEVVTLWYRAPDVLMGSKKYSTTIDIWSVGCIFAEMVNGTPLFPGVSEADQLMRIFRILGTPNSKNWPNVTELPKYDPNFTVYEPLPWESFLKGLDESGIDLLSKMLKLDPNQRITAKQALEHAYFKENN

| SMILES | kinase still bound, per cent of control [1] | kinase still bound, per cent of control (STK3 (human)) | kinase still bound, per cent of control (RPS6KA3 KD1 (human)) | kinase still bound, per cent of control (YSK4 (human)) | kinase still bound, per cent of control (MYLK4 (human)) | kinase still bound, per cent of control [2] | kinase still bound, per cent of control (ROCK2 (human)) | kinase still bound, per cent of control (CRK2 (P.falciparum)) | kinase still bound, per cent of control (ULK1 (human)) | kinase still bound, per cent of control (MAP2K3 (human)) | kinase still bound, per cent of control (SRPK3 (human)) | kinase still bound, per cent of control (MET (human)) | kinase still bound, per cent of control (CDK13 (human)) | kinase still bound, per cent of control (CLK2 (human)) | kinase still bound, per cent of control [3] | kinase still bound, per cent of control (MAPK9 (human)) | kinase still bound, per cent of control (PDPK1 (human)) | kinase still bound, per cent of control (HIPK2 (human)) | kinase still bound, per cent of control (CDK19 (human)) | kinase still bound, per cent of control (DSTYK (human)) | other results |
| --- | --- | --- | --- | --- | --- | --- | --- | --- | --- | --- | --- | --- | --- | --- | --- | --- | --- | --- | --- | --- | --- |
| O=c1cc(N2CCOCC2)oc2c(-c3cccc4c3sc3ccccc34)cccc12 | 93% | 85% | 84% | 100% | 100% | 100% | 100% | 100% | 41% | 91% | 100% | 63% | 100% | 65% | 95% | 39% | 95% | 100% | 100% | 99% | kinase still bound, per cent of control (MAP3K15 (human)): 100%; kinase still bound, per cent of control (WEE1 (human)): 100%; kinase still bound, per cent of control (RAF1 (human)): 97%; kinase still bound, per cent of control (CHEK2 (human)): 100%; kinase still bound, per cent of control (LCK (human)): 90%; kinase still bound, per cent of control (SRMS (human)): 62%; kinase still bound, per cent of control (PKN2 (human)): 86%; kinase still bound, per cent of control (IRAK1 (human)): 96%; kinase still bound, per cent of control (STK38L (human)): 95%; kinase still bound, per cent of control (RIPK2 (human)): 91%; kinase still bound, per cent of control (SNRK (human)): 73%; kinase still bound, per cent of control (SRPK2 (human)): 78%; kinase still bound, per cent of control (STK25 (human)): 59%; kinase still bound, per cent of control (NEK3 (human)): 100%; kinase still bound, per cent of control (CDK8 (human)): 100%; kinase still bound, per cent of control (RPS6KA5 KD2 (human)): 80%; kinase still bound, per cent of control (PDGFRA (human)): 100%; kinase still bound, per cent of control (TGFBR2 (human)): 89%; kinase still bound, per cent of control (FGR (human)): 92%; kinase still bound, per cent of control (IRAK4 (human)): 99% |
| O=C1NC(=O)/C(=C/c2ccc3nccc(-c4ccncc4)c3c2)S1 | 82% | 54% | 41% | 0.05% | 2.2% | 100% | 53% | 93% | 74% | 35% | 31% | 32% | 95% | 0.15% | 96% | 39% | 62% | 0.15% | 4.2% | 61% | kinase still bound, per cent of control (MAP3K15 (human)): 100%; kinase still bound, per cent of control (WEE1 (human)): 100%; kinase still bound, per cent of control (RAF1 (human)): 47%; kinase still bound, per cent of control (CHEK2 (human)): 57%; kinase still bound, per cent of control (LCK (human)): 62%; kinase still bound, per cent of control (SRMS (human)): 67%; kinase still bound, per cent of control (PKN2 (human)): 31%; kinase still bound, per cent of control (IRAK1 (human)): 0.25%; kinase still bound, per cent of control (STK38L (human)): 100%; kinase still bound, per cent of control (RIPK2 (human)): 30%; kinase still bound, per cent of control (SNRK (human)): 100%; kinase still bound, per cent of control (SRPK2 (human)): 86%; kinase still bound, per cent of control (STK25 (human)): 75%; kinase still bound, per cent of control (NEK3 (human)): 77%; kinase still bound, per cent of control (CDK8 (human)): 7.3%; kinase still bound, per cent of control (RPS6KA5 KD2 (human)): 4.6%; kinase still bound, per cent of control (PDGFRA (human)): 67%; kinase still bound, per cent of control (TGFBR2 (human)): 73%; kinase still bound, per cent of control (FGR (human)): 69%; kinase still bound, per cent of control (IRAK4 (human)): 47% |
